The values below come from US11634381B2, “RUNX2 transcription factor inhibitors and uses thereof” (University of Maryland, Baltimore, priority 2015, dated 2023).

The target of series [1] is RUNX2 (Homo sapiens, UniProt Q13950). Kind of series: D-ELISA DNA binding assay. The settings on record: read-out: IC50 in D-ELISA DNA binding assays (RUNX2 DNA binding). Also on record: endogenous in cells. As to the method:
A microtiter plate-based D-ELISA was performed as described. Briefly, nuclear proteins were isolated from HBME-1 cells that express all three RUNX proteins and bound to double-stranded DNA oligonucleotides of human osteocalcin and MMP13 (forward primer: 5′-TTCTACCACAAACCACACTCGTTCTACCACAAACCACACTCGTTCTACCACAAACCACACTCG-Biotin-3′, SEQ ID NO: 4 and reverse primer: 5′-CGAGTGTGGTTTGTGGTAGAACGAGTGTGGTTTGTGGTAGAACGAGTGTGGTTTGTGGTAGAA-Biotin-3′, SEQ ID NO: 5). Vehicle (0.05% DMSO) or compound 1 at different concentrations were incubated with the proteins and DNA oligonucleotide mixture in Avidin-coated 96-well plates. DNA-bound RUNX proteins were captured with specific antibodies (Cell Signaling Technologies). Primary and secondary antibody dilution was 1:500 and 1:10,000, respectively.

Series [2] is described as follows: Maximum tolerated dose (MTD) test. Type of series: in vivo. The settings on record: up to 20 mg/kg, 2 weeks, athymic nude mice. An excerpt: Animal maintenance and experimental protocols are in accordance with the guidelines of the University of Maryland's Institutional Animal Care and Use Committee.
Another series concerns breast cancer cells. The series can be described thus: Cell cycle analysis by flow cytometry. Type of series: cell-based, human. To be noted: 50 μM. Here is the method: Cells (1×10^6 cells/ml) were starved in serum-free medium for 24 hrs, and released in 10% serum-medium with or without compound 1 (50 μM) for 16-24 hrs for cell cycle transition. Cells were then fixed in 70% ethanol at 4° C. for 1 hr, resuspended in 1 ml PBS containing 20 μg/ml propidium iodide, 20 μg/ml RNase A, incubated for 30 min at room temperature, and analyzed with a Becton Dickinson LSR-II at the Flow Cytometry Core Laboratory at the University of Maryland. Ten thousand events per sampl were collected and analyzed using the Cell-Quest (BD Biosciences).

Series [3] concerns MDA-231, MDA-468, MCF7 and BT474 breast cancer cells. The series can be described thus: ROS production luminometer assay. Type of series: cell-based, human. To be noted: 0-100 μM, 6-18 hours. Here is the method: In FIG. 27A MDA-231, MDA-468, MCF7 and BT474 breast cancer cells were treated with compound 1 (0-100 μM) for 6-18 hours and ROS production in response to H2O2 treatment (2 mM) was measured with luciferase-based luminometer assay. In FIG. 27B T47D-Vector control or T47D-RUNX2-clone #10 overexpressing cells; MCF7-Vector Control or RUNX2-clone #2 overexpressing cells were treated with 50 μM compound 1 for 6 hours.

A further series deals with MDA-231 cells. Kind of series: Cell-electrode impedance invasion assay (xCELLigence). Type of series: cell-based, human. The settings on record: MDA-231, 50 μM, 48 hrs. Here is the method: Real-time monitoring of cellular invasion was examined using an electrical impedance assay with an xCELLigence RTCA SP real-time cell-sensing device (Roche Applied Science). Matrigel (20 μl of 0.5 mg/ml) was pre-coated in the upper chamber of CIM plates and polymerized for 4 h and MDA-231 cells (75,000) were seeded onto wells containing growth medium with vehicle (0.1% DMSO) or compound 1 (50 μM). Impedance-based signals were measured every 5 minutes for 48 hrs according to the manufacturer's instructions. The invasive activity is expressed as the cell index (mean±SD) of duplicate wells. Three independent experiments were performed. In parallel, MDA-231 cells were plated onto wells with serum-free medium and the assay was performed.

The test system of series [4] is RUNX2. Kind of series: Western blot of RUNX2, RUNX1, CBF-β. Type of series: cell-based, human. To be noted: for CBF-β levels: MDA-231, MDA-468 and MCF7 cells. Here is the method: Whole cell lysates extracted in RIPA buffer (Upstate) were separated on 4-12% gradient SDS-PAGE and transferred to nitrocellulose membrane. The blots were incubated with specific antibodies for each protein overnight at 4° C. After antibody washing, the blots were reacted with their respective secondary antibody and detected with enhanced chemiluminescence reagents (Millipore) according to the supplier's protocol. Antibodies for proteins were purchased as below. RUNX1, RUNX2, CBF-β, ubiquitin and caspase-3 (Cell Signaling Technologies), S451-p-RUNX2 (Bioss Gentaur, Belgium), RUNX3 and Glut-1 (Millipore, Calif.), β-actin and RUNX2 antibody for IHC (Sigma-Aldrich), and Ki-67 for IHC (Bethyl Laboratories, Inc, TX).

In a further series the test system is RUNX2 responsive genes. The series can be described thus: Q-RT-PCR of RUNX2 responsive genes. The format is cell-based, human. The settings on record: 50 μM. As to the method: Total RNA was extracted using TRIzol (Life Technologies). One […] of total RNA was reverse transcribed with oligo-(dT) primer using the SuperScript first-strand synthesis system (Invitrogen) to synthesize cDNA. One μl of each cDNA was used for real-time RT-PCR using QuantiFast SYBR Green PCR Kit […]. mRNA expression of gene of interest relative to β-actin was calculated based on the threshold cycle (Ct) as 2^−D(DCt) method.

The subject of series [5] is MCF7-tet-off-Luc (-Doxy) and 231-Luc cells. Kind of series: In vivo lung metastasis assay (BLI). More on the design: species or system NSG mice. The settings on record: 10 mg/kg. As to the method:
For in vivo lung metastasis assay, MCF7-tet-off-Luc cells were grown for 3 days in the absence of Doxycyclin (−Doxy) and injected into the tail vein of the 8 week-old female NSG mice (1×10^6 cells/200 μl of PBS). After inoculation, the mice were randomly assigned to vehicle control and treatment groups. Vehicle (10% DMSO/90% PBS) and compound 1 (10 mg/kg) were injected i.p. 2 hrs after inoculation. The retention of the cells in the lung was monitored by noninvasive bioluminescence imaging for 24 hrs. For luciferase detection, 150 mg/mL D-luciferin (Caliper Life Sciences) in PBS was injected i.p. before imaging. Photometric measurement of metastasis was done by living Image software (Xenogen). In separate groups of mice, 231-Luc cells (1×10^6/200 μl of PBS) were injected, and the metastasis burden in the lung was quantified for 3 weeks.

Sequence of RUNX2 (Homo sapiens, UniProt Q13950) (Q13950 whole entry): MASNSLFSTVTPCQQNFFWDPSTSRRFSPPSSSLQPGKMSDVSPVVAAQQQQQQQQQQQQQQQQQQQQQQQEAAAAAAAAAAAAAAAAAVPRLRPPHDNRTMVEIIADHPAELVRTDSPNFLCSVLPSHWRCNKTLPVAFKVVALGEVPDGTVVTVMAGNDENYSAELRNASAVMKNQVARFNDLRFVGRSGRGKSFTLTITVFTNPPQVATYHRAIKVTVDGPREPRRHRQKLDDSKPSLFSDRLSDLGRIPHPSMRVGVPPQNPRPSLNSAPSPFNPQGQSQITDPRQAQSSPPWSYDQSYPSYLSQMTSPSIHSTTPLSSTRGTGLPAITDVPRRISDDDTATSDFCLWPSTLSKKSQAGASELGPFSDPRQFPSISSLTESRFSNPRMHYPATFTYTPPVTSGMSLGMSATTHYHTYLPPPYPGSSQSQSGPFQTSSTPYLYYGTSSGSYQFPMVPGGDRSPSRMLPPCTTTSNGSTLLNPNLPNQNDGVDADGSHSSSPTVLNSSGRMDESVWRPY

Regarding `O=C(O)C1C2C=CC(C2)C1C(=O)Nc1ccc(Cl)c(Cl)c1` (stereo not shown) [compound 1, 3-(N-(3,4-dichlorophenyl)carbamoyl)-5-norbornene-2-carboxylic acid], at RUNX2 [1], the IC50 was determined as 10 nM. The “influence on body weight or general health” value in series [2] was “no detectable influence”. The cell cycle distribution entry in the series on breast cancer cells is listed as “increased cell populations at the G1 phase with reduction at the S phase”. Moreover, the “mitochondrial ROS production” value in series [3] is recorded as “increase in mitochondrial ROS production”. The “cell index (mean±SD)” value with MDA-231 cells was found to be 1.6636±0.1845. The CBF-β levels result with RUNX2 [4] (6 hrs) is listed as “increased”. Also, the CBF-β levels entry in the series with RUNX2 [4] (after 24 hrs) is listed as “decreased”. Moreover, the “mRNA and protein expression of RUNX2” value with RUNX2 [4] (T47D-RUNX2 and MCF7-RUNX2 cells, 50 μM, 72 hrs) is recorded as “further enhanced”. Moreover, the CBF-β level result in the series with RUNX2 [4] (ectopic RUNX2 T47D and MCF7 cells, 50 μM, 72 hrs) is reported as “reduced”. Further, the “stability of RUNX1 or of CBF-β” value with RUNX2 [4] (in the presence of CHX) is “not increased”. Besides, in the series on RUNX2 [4] (most BC cells), the RUNX1 protein levels entry was “not altered”. In addition, in the series with RUNX2 responsive genes (MDA-231 cells, 6 hrs), the “level of Sirt6 mRNA” value is on record as “increased”; the “transcriptional levels of Glut-1 and LDHA” value was “reduced”. Moreover, the “mRNA expression levels of MMP13, VEGF, and MMP9” value in the series with RUNX2 responsive genes (ectopic RUNX2-expressing MCF7 and T47D cells, 72 hrs) is listed as “repressed”. Besides, the “RUNX2-increased mRNA level of Glut-1 and LDHA” value with RUNX2 responsive genes (ectopic RUNX2-expressing T47D and MCF7 cells, 72 hrs) is reported as “significantly inhibited”. Also, in series [5] (NSG mice), the “body weight and general health” value is listed as “did not significantly decrease body weight”. Moreover, in series [5] (231-Luc cells, 3 weeks), the “colonization and outgrowth in the lung versus vehicle” value was “significantly lower”. Besides, in series [5] (MCF7-tet-off-Luc (-Doxy) cells), the “metastatic homing to the mouse lungs” value is given as “no influence”. The “lung retention of the cells” value in series [5] (MCF7-tet-off-Luc (-Doxy) cells, 24 hrs) is recorded as “significantly reduced”.
